Reference: US12440500B2, “Phytoecdysones and the derivatives thereof for use in the treatment of neuromuscular diseases” (BIOPHYTIS, priority 2019, dated 2025)

Legend:
murine myotubes C2C12 = murine myotubes C2C12 in vitro; cited from earlier work
[1] = young athletes; cited from earlier work
muscles = conditions: rats in vivo; cited from earlier work
[2] = system: muscles Soleus, Plantaris and Tibialis of SMA mice; test: Histological analysis of muscle cross-sections (Hematoxylin-Eosin): number and cross-section surface of muscle fibers; type: in vivo, mouse
Procedure: At P11, one hour after their last gavage, the treated mice were anaesthetized with pentobarbital 1% at 6 μL/g of mouse then the extensor muscles Soleus, with a mixed typology, extensor Plantaris, with a fast typology, and flexor Tibialis, with a fast typology, were sampled in order to conduct histological or molecular studies. After sampling, the muscles Soleus, Plantaris and Tibialis were included individually in a preservation medium then frozen in cooled isopentane. For each muscle, medial cross-sections 10 μm thick were realized. These sections were stained with Hematoxyline-Eosin, dehydrated and mounted in an inclusion medium. The images of these sections were taken with a microscope (with a magnification ×200). In order to obtain images with an impression of relief, the differential interference contrast technique was used. From these images, the number of muscle fibers of each muscle and the cross-section surface of 20% of these fibers were counted using image processing software (FIG. 2).

[3] = system: SMA mice (FVB/NRj-SmnΔ7/Δ7 huSMN2+/+ 2 copies); test: Phenotypic analysis: weight and survival of severe SMA mice under daily gavage; type: in vivo, mouse
Source text: A severe SMA mouse model was used on an FVB/NRj gene pool, characterized by the invalidation of the exon 7 of the murine gene Smn and expressing 2 copies of the human transgene SMN2 (Smn^Δ7/Δ7; huSMN2^+/+) (Hsieh et al., 2000). The mice resulting from these crossings having the “FVB/NRj-Smn^Δ7/Δ7 huSMN2^+/+ 2 copies” genotype are described as “SMA”. These mice are characterized by progressive growth failure which is observed starting from 4 days post-natal and have a degeneration of about 50% of the motor neurons of the ventral horn of the spinal cord at the end of life, progressive muscular atrophy and an average lifespan of about 12 days (Hsieh et al., 2000). The mice having the “FVB/NRj-Smn^+/Δ7 huSMN2^++ 2 copies” genotype have no particular phenotype and are used as so-called “control” mice. The mice were treated via daily gavage of a dose of 50 mg/kg, either with the molecule BIO101 complexed to a vehicle (cyclodextrin in the present case), or with the vehicle alone (VH). The weight and the survival were analyzed on a daily basis until P11. In the rest of the description, n corresponds to the size of the sample and p corresponds to the “p value” used to quantify the statistical significance of a result.
The same type II murine model was used to characterize the phenotypic effects of the molecule BIO103 in a severe SMA model. The mice were treated via daily gavage of a dose of 50 mg/kg, either with the molecule BIO103 complexed with the vehicle (cyclodextrin in the present case), or with the vehicle alone (VH). The weight and the survival were analyzed on a daily basis until P11.

CC(C)(O)CC[C@@H](O)[C@](C)(O)[C@H]1CC[C@@]2(O)C3=CC(=O)[C@@H]4C[C@@H](O)[C@@H](O)C[C@]4(C)[C@H]3CC[C@]12C [20-hydroxyecdysone]
effects on protein syntheses (murine myotubes C2C12): stimulating effects
muscle mass [1]: favors the increase
effects on protein syntheses in muscles (muscles): stimulating effects

CCSCC(=O)[C@H]1CC[C@@]2(O)C3=CC(=O)[C@@H]4C[C@@H](O)[C@@H](O)C[C@]4(C)C3CC[C@]12C (stereo partly drawn) [BIO103, (2S,3R,5R,10R,13R,14S,17S)-17-(2-ethylsulfanylacetyl)-2,3,14-trihydroxy-10,13-dimethyl-2,3,4,5,9,11,12,15,16,17-decahydro-1H-cyclopenta[a]phenanthren-6-one]
atrophy of the muscle fibers (cross-section surface) in relation to healthy control mice ([2]; Plantaris, P11, SMA mice treated P0 to P11 (SMA vehicle 46%)): 15.3%
atrophy of the muscle fibers (cross-section surface) in relation to healthy control mice ([2]; Soleus, P11, SMA mice treated P0 to P11 (SMA vehicle 50.2%)): 37.1%
atrophy of the muscle fibers (cross-section surface) in relation to healthy control mice ([2]; Tibialis, P11, SMA mice treated P0 to P11 (SMA vehicle 56.1%)): 22.1%
proportion of fibers with cross-section surface greater than 400 μm^2 ([2]; Tibialis, versus SMA vehicle): significant increase
proportion of small fibers with cross-section surface less than 200 μm^2 ([2]; Tibialis, versus SMA vehicle, p<0.05): decreases significantly
survival at P11 ([3]; 50 mg/kg daily gavage P0 to P11): 66.6%
loss of weight of the animals ([3]; 50 mg/kg daily gavage from birth to P11, versus vehicle): tends to limit
